Reference: patent US20260297108A1, “NOVEL INHIBITORS OF PIKFYVE AND METHODS USING SAME” (priority 2023, published 2026)

The compounds below were run against PIKFYVE (Homo sapiens, UniProt Q9Y2I7) (assay: KINOMEscan Kinase Assay (PIKFYVE inhibitory activity)). Conditions: read-out: PIKfyve Activity (% inhibition).
PIKFYVE, sequence (Q9Y2I7 whole entry): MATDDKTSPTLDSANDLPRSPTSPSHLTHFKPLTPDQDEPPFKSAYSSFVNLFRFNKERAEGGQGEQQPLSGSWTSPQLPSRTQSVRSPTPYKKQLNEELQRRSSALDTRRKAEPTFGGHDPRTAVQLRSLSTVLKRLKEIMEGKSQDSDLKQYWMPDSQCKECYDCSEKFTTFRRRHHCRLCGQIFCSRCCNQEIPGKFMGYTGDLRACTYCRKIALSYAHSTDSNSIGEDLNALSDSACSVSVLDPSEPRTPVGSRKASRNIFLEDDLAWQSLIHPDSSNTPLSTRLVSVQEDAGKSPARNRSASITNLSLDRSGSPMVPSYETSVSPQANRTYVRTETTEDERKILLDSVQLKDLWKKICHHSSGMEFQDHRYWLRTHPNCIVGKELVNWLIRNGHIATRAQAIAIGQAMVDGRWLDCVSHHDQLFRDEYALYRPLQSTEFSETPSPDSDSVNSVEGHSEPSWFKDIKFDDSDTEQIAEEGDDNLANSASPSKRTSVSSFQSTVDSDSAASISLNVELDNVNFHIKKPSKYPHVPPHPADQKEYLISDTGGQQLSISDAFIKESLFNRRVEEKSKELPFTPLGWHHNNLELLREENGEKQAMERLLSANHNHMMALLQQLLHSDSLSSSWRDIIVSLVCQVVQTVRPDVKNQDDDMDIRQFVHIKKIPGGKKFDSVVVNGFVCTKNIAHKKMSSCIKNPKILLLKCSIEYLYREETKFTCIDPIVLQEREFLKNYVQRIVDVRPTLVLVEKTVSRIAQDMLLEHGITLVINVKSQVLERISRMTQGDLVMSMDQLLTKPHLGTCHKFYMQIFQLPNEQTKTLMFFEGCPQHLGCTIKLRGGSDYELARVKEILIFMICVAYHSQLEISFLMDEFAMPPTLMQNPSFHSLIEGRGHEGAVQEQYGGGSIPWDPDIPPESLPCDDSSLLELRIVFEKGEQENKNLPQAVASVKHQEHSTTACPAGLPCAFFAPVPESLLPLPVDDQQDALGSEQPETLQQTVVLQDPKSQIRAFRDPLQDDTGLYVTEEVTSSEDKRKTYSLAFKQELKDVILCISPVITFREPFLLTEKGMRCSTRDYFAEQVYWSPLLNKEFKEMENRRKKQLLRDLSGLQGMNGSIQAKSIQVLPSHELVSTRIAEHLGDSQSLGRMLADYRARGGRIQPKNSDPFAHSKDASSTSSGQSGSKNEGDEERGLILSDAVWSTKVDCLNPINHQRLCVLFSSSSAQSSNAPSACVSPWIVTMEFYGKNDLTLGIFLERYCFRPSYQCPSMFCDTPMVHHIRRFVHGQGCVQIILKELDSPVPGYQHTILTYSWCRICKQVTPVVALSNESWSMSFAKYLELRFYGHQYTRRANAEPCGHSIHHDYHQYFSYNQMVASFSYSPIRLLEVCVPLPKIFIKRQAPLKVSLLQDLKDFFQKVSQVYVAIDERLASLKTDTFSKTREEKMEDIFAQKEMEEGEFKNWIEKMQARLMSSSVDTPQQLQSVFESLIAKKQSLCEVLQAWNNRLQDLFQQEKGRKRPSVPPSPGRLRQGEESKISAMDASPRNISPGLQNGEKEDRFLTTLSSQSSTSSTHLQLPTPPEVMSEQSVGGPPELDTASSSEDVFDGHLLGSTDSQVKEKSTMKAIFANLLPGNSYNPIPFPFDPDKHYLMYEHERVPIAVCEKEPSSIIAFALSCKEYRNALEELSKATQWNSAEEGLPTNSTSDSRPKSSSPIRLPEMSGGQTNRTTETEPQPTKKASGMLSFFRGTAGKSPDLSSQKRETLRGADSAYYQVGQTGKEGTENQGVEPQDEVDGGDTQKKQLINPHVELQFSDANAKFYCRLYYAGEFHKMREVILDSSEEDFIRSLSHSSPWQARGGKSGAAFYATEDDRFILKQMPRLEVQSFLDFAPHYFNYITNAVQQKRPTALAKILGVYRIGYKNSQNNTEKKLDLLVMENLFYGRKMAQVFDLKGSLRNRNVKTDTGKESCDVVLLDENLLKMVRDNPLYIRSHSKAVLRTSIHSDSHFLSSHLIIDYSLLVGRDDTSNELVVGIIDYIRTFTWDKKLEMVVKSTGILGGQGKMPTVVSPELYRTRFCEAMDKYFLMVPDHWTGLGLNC
CC(=O)c1cccc(-c2ccn(-c3cc(N4CCOCC4)c4sc(CN5CCOCC5)cc4n3)n2)c1 [Ex. 184, 1-(3-(1-(7-Morpholino-2-(morpholinomethyl)thieno[3,2-b]pyridin-5-yl)-1H-pyrazol-3-yl)phenyl) ethan-1-one] showed an inhibition at 0.005 µM of 10%. With Cc1cccc(-c2ccn(-c3nc(N4CCOCC4)c4sc(C#CCN(C)C)cc4n3)n2)c1 [Ex. 207, N,N-Dimethyl-3-(4-morpholino-2-(3-(m-tolyl)-1H-pyrazol-1-yl)thieno[3,2-d]pyrimidin-6-yl)prop-2-yn-1-amine] the inhibition at 0.001 µM was 35%. With Cc1cccc(-c2ccn(-c3cc(N4CCOCC4)c4sc(NC(=O)C5COC5)cc4n3)n2)c1 [Ex. 232] the inhibition at 0.001 µM was 24%. Cc1cccc(-c2nc(-c3nc(N4CCOCC4)c4sc(CN5CCN(S(C)(=O)=O)CC5)cc4n3)co2)c1 [Ex. 241] gave an inhibition at 0.003 µM of 0%. Cc1cccc(-c2nc(-c3cc(N4CCOCC4)c4sc(CN5CCN(S(C)(=O)=O)CC5)cc4n3)co2)c1 [Ex. 242] showed an inhibition at 0.003 µM of 8%. Cc1cccc(-c2nc(-c3cc(N4CCOCC4)c4sc(CN5CCN(S(C)(=O)=O)CC5)cc4n3)cs2)c1 [Ex. 244] showed an inhibition at 0.001 µM of 37%. In the case of Cc1cccc(-c2ccn(-c3cc(N4CCOCC4)c4sc(NC(=O)C5CCCN(C)C5)cc4n3)n2)c1 (stereo not shown) [Ex. 272], the inhibition at 0.001 µM is reported as 44%. In the case of Cc1cccc(-c2ccn(-c3nc(N4CCOCC4)c4nc(C(=O)NC5COC5)[nH]c4n3)n2)c1 [Ex. 275], the inhibition at 0.001 µM is reported as 40%. Cc1cccc(-c2ccn(-c3cc(N4CCOCC4)c4nc(CN5CCN(S(=O)(=O)C6CC6)CC5)[nH]c4n3)n2)c1 [Ex. 280] gave an inhibition at 0.001 µM of 46%. Compound Cc1cccc(-c2ccn(-c3nc(N4CCOCC4)c4nc(CN5CCN(S(C)(=N)=O)CC5)[nH]c4n3)n2)c1 (stereo not shown) [Ex. 282] has an inhibition at 0.001 µM of 41%.

Same assay, conditions: read-out: PIKfyve Activity (PIKfyve % inhibition)
In the case of Cc1cccc(-c2ccn(-c3cc(N4CCOCC4)c4sc(C(=O)NC5CCOCC5)cc4n3)n2)c1 [Ex. 177, 7-Morpholino-N-(tetrahydro-2H-pyran-4-yl)-5-(3-(m-tolyl)-1H-pyrazol-1-yl)thieno[3,2-b]pyridine-2-carboxamide], the inhibition at 0.001 µM is reported as 52 to 100%. In the case of Cc1cccc(-c2ccn(-c3cc(N4CCOCC4)c4sc(C(=O)NC5COC5)cc4n3)n2)c1 [Ex. 179, 7-Morpholino-N-(oxetan-3-yl)-5-(3-(m-tolyl)-1H-pyrazol-1-yl)thieno[3,2-b]pyridine-2-carboxamide], the inhibition at 0.001 µM is reported as 52 to 100%. With Cc1cccc(-c2ccn(-c3nc(N4CCOCC4)c4sc(/C=C/CN5CCN(C)CC5)cc4n3)n2)c1 [Ex. 180] the inhibition at 0.001 µM was 52 to 100%. With Cc1cccc(-c2ccn(-c3cc(N4CCOCC4)c4sc(C(=O)NC5CC5)cc4n3)n2)c1 [Ex. 183, N-cyclopropyl-7-morpholino-5-(3-(m-tolyl)-1H-pyrazol-1-yl)thieno[3,2-b]pyridine-2-carboxamide] the inhibition at 0.001 µM was 52 to 100%. For Cc1cccc(-c2ccn(-c3cc(N4CCOCC4)c4sc(C(=O)NC5CCN(C)CC5)cc4n3)n2)c1 [Ex. 186, N-(1-Methylpiperidin-4-yl)-7-morpholino-5-(3-(m-tolyl)-1H-pyrazol-1-yl)thieno[3,2-b]pyridine-2-carboxamide], the inhibition at 0.001 µM was 52 to 100%. Work on Cc1cccc(-c2ccn(-c3cc(N4CCOCC4)c4sc(C(=O)NC5CCCN(C)C5)cc4n3)n2)c1 (stereo not shown) [Ex. 187, N-(1-Methylpiperidin-3-yl)-7-morpholino-5-(3-(m-tolyl)-1H-pyrazol-1-yl)thieno[3,2-b]pyridine-2-carboxamide] yielded an inhibition at 0.001 µM of 52 to 100%. Work on Cc1cccc(-c2ccn(-c3cc(N4CCOCC4)c4sc(C(=O)NC5CCN(C)C5)cc4n3)n2)c1 (stereo not shown) [Ex. 200, N-(1-Methylpyrrolidin-3-yl)-7-morpholino-5-(3-(m-tolyl)-1H-pyrazol-1-yl)thieno[3,2-b]pyridine-2-carboxamide] yielded an inhibition at 0.001 µM of 52 to 100%. Cc1cccc(-c2ccn(-c3cc(N4CCOCC4)c4sc(C(=O)NC5CN(C)C5)cc4n3)n2)c1 [Ex. 201, N-(1-Methylazetidin-3-yl)-7-morpholino-5-(3-(m-tolyl)-1H-pyrazol-1-yl)thieno[3,2-b]pyridine-2-carboxamide] was tested, and the inhibition at 0.001 µM was 52 to 100%. For Cc1cccc(-c2ccn(-c3nc(N4CCOCC4)c4sc(NCCN5CCOCC5)nc4n3)n2)c1 [Ex. 202, 7-Morpholino-N-(2-morpholinoethyl)-5-(3-(m-tolyl)-1H-pyrazol-1-yl)thiazolo-[4,5-d]pyrimidin-2-amine], the inhibition at 0.001 µM was 52 to 100%. Work on Cc1cccc(-c2ccn(-c3nc(N4CCOCC4)c4sc(N(C)C5CCN(C)CC5)nc4n3)n2)c1 [Ex. 208, N-Methyl-N-(1-methylpiperidin-4-yl)-7-morpholino-5-(3-(m-tolyl)-1H-pyrazol-1-yl)thiazolo[4,5-d]pyrimidin-2-amine] yielded an inhibition at 0.001 µM of 52 to 100%. Work on Cc1cccc(-c2ccn(-c3nc(N4CCOCC4)c4sc(NCCS(C)(=O)=O)nc4n3)n2)c1 [Ex. 209, N-(2-(Methylsulfonyl)ethyl)-7-morpholino-5-(3-(m-tolyl)-1H-pyrazol-1-yl)thiazolo[4,5-d]pyrimidin-2-amine] yielded an inhibition at 0.001 µM of 52 to 100%. Cc1cccc(-c2ccn(-c3cc(N4CCOCC4)c4sc(C(=O)N5CCN(C)CC5)cc4n3)n2)c1 [Ex. 217, (4-Methylpiperazin-1-yl) (7-morpholino-5-(3-(m-tolyl)-1H-pyrazol-1-yl)thieno[3,2-b]pyridin-2-yl)methanone] showed an inhibition at 0.001 µM of 52 to 100%. For Cc1cccc(-c2ccn(-c3cc(N4CCOCC4)c4sc(NC(=O)C5CCN(C)CC5)cc4n3)n2)c1 [Ex. 235], the inhibition at 0.001 µM was 52 to 100%. Work on Cc1cccc(-c2ccn(-c3cc(N4CCOCC4)c4sc(C(=O)N5CCC(N6CCC6)C(F)C5)cc4n3)n2)c1 (stereo not shown) [Ex. 236] yielded an inhibition at 0.001 µM of 52 to 100%. Compound Cc1cccc(-c2ccn(-c3cc(N4CCOCC4)c4sc(C(=O)N5CCC(N6CC(F)C6)CC5)cc4n3)n2)c1 [Ex. 237] has an inhibition at 0.001 µM of 52 to 100%. With Cc1cccc(-c2ccn(-c3cc(N4CCOCC4)c4sc(C(=O)N5CCC(N6CC(F)C6)C5)cc4n3)n2)c1 (stereo not shown) [Ex. 238] the inhibition at 0.001 µM was 52 to 100%. Work on Cc1cccc(-c2ccn(-c3cc(N4CCOCC4)c4sc(C(=O)N5CC(F)C(N6CCC6)C5)cc4n3)n2)c1 (stereo not shown) [Ex. 239] yielded an inhibition at 0.001 µM of 52 to 100%. Work on Cc1cccc(-c2ccn(-c3cc(N4CCOCC4)c4sc(C(=O)N5CCN(S(C)(=O)=O)CC5)cc4n3)n2)c1 [Ex. 240] yielded an inhibition at 0.001 µM of 52 to 100%. Work on Cc1cccc(-c2nc(-c3nc(N4CCOCC4)c4sc(CN5CCN(S(C)(=O)=O)CC5)cc4n3)cs2)c1 [Ex. 243] yielded an inhibition at 0.001 µM of 52 to 100%. CNC(=O)c1cc2nc(-n3ccc(-c4cccc(C)c4)n3)cc(N3CCOCC3)c2s1 [Ex. 247] was tested, and the inhibition at 0.001 µM was 52 to 100%. Cc1cccc(-c2ccn(-c3cc(N4CCOCC4)c4sc(C(=O)NC5(C)COC5)cc4n3)n2)c1 [Ex. 252] was tested, and the inhibition at 0.001 µM was 52 to 100%. Cc1cccc(-c2ccn(-c3cc(N4CCOCC4)c4sc(C(=O)NCCN(C)C)cc4n3)n2)c1 [Ex. 255] gave an inhibition at 0.001 µM of 52 to 100%. Cc1cccc(-c2ccn(-c3cc(N4CCOCC4)c4sc(NC(=O)C5CCN(C)C5)cc4n3)n2)c1 (stereo not shown) [Ex. 271] was tested, and the inhibition at 0.001 µM was 52 to 100%. Cc1cccc(-c2ccn(-c3nc(N4CCOCC4)c4nc(C(=O)NC5CC5)[nH]c4n3)n2)c1 [Ex. 274] was tested, and the inhibition at 0.001 µM was 52 to 100%. For Cc1cccc(-c2ccn(-c3cc(N4CCOCC4)c4sc(NC(=O)C5CNC5)cc4n3)n2)c1 [Ex. 278], the inhibition at 0.001 µM was 52 to 100%. Compound Cc1cccc(-c2ccn(-c3cc(N4CCOCC4)c4nc(CN5CCN(S(=O)(=O)C(C)C)CC5)[nH]c4n3)n2)c1 [Ex. 279] has an inhibition at 0.001 µM of 52 to 100%. Cc1cccc(-c2ccn(-c3cc(N4CCOCC4)c4nc(CN5CC6CC5CN6S(C)(=O)=O)[nH]c4n3)n2)c1 (stereo not shown) [Ex. 281] was tested, and the inhibition at 0.001 µM was 52 to 100%.
